pIC50: −log10 of the molar value. Activity calls are given as the source filed them. No cut-off for these calls is given here.
Tests used:
[1] = Displacement of [3H]colchicine from tubulin assessed as bound colchicine at […] incubated in dark for 2 hrs by scintillation spectroscopy
[2] = system: HUVEC; assay: Antivascular activity in HUVEC cells assessed as change in cell shape at 1 uM after 1 hr by fluorescent-labeled high molecular weight F-dextran permeability assay; type: functional, cell-based; settings: Homo sapiens
[3] = system: K562; assay: Cell cycle arrest in human K562 cells assessed as accumulation at G0/G1 phase at 20 nM after 24 hrs by propidium iodide staining-based flow cytometry; type: functional
[4] = system: K562; assay: Cell cycle arrest in human K562 cells assessed as accumulation at S phase at 20 nM after 24 hrs by propidium iodide staining-based flow cytometry; type: functional
[5] = system: K562; assay: Cell cycle arrest in human K562 cells assessed as accumulation at G2/M phase at 20 nM after 24 hrs by propidium iodide staining-based flow cytometry; type: functional
[6] = Inhibition of tubulin assembly by Woods method
[7] = system: K562; assay: Antiproliferative activity against human K562 cells after 5 days by MTT assay; type: functional, cell-based

Row | pIC50 ([7]; Homo sapiens, K562, 120 h) | Compound | other results
1 | – | COc1ccc(C(=O)/C=C/c2ccc(OC)c(OP(=O)(O)O)c2)cc1 [listing 1 of 2 here] | Activity [1]: 83%; Activity [2]: Active
2 | 7.30 | COc1cc(C(=O)/C(C)=C/c2cc(F)c(OC)c(F)c2)cc(OC)c1OC | Activity [3]: 4%; Activity [4]: 24%; Activity [1]: 25%; Activity [5]: 72%; pIC50 [6]: 5.62
3 | < 4.52 | COc1ccc(C(=O)[C@H]2O[C@@H]2c2ccc(C)cc2)cc1 (relative stereo) | –
4 | 7.96 | CCO/C(=C\c1ccc(OC)c(F)c1)C(=O)c1cc(OC)c(OC)c(OC)c1 | –
5 | 5.64 | COc1ccc(C(=O)/C(C)=C/c2cc(OC)ccc2OC)cc1 | –
6 | 8.66 | CCC/C(=C\c1ccc(OC)c(O)c1)C(=O)c1cc(OC)c(OC)c(OC)c1 | –
7 | 5.10 | O=C(/C=C/c1ccc2c(c1)OCO2)c1ccc2c(c1)OCCO2 | –
8 | 5.77 | COc1ccc(C(=O)/C=C/c2ccc(O)c(O)c2)c(OC)c1OC | –
9 | 8.59 | CCO/C(=C\c1ccc(OC)c(O)c1)C(=O)c1cc(OC)c(OC)c(OC)c1 | –
10 | 5.72 | COc1ccc(/C=C(\C)C(=O)c2ccc(OC)cc2)cc1 | –
11 | – | CN(Cc1cnc2nc(N)nc(N)c2n1)c1ccc(C(=O)N[C@@H](CCC(=O)O)C(=O)O)cc1 | Activity [2]: inactive
12 | 4.80 | COc1ccc(C(=O)/C=C/c2ccc(OC)c(OC)c2)c(O)c1 | –
13 | 5.82 | COc1cc(C(=O)/C=C/c2ccc(Cl)cc2)cc(OC)c1OC | –
14 | < 4.52 | COc1ccc(C(=O)[C@H]2O[C@@H]2c2ccc(OC)cc2)cc1 (racemic) | –
15 | 7.05 | COc1ccc(/C=C(\C)C(O)c2cc(OC)c(OC)c(OC)c2)cc1O (stereo unspecified) | Activity [3]: 44%; Activity [4]: 33%; Activity [5]: 24%; pIC50 [6]: < 5.00
16 | 6.00 | COc1ccc(CCC(=O)c2cc(OC)c(OC)c(OC)c2)cc1O | –
17 | 6.22 | COc1ccc(CC(C)C(O)c2cc(OC)c(OC)c(OC)c2)cc1O (stereo unspecified) | –
18 | 4.92 | COc1ccc(C(=O)CCc2cc(OC)c(OC)c(OC)c2)cc1 | –
19 | 7.70 | CCCO/C(=C\c1ccc(OC)c(F)c1)C(=O)c1cc(OC)c(OC)c(OC)c1 | –
20 | – | COc1ccc(/C=C\c2cc(OC)c(OC)c(OC)c2)cc1O [COMBRETASTATIN A4] | Activity [3]: 2%; Activity [4]: 8%; Activity [1]: 8%; Activity [5]: 90%; pIC50 [6]: 7.00
21 | 5.21 | COc1cc(C(=O)/C=C/c2cc(F)c(OC)c(F)c2)cc(OC)c1OC | Activity [3]: 20%; Activity [4]: 19%; Activity [5]: 61%; pIC50 [6]: 4.92

Row | pIC50 ([7]; Homo sapiens, K562, 120 h) | Compound | other results
22 | 7.52 | COc1ccc(CC(C)C(=O)c2cc(OC)c(OC)c(OC)c2)cc1O (stereo unspecified) | Activity [3]: 36%; Activity [4]: 36%; Activity [5]: 28%; pIC50 [6]: 5.40
23 | 5.82 | COc1ccc(/C=C/C(=O)c2ccc(C)cc2)cc1O | –
24 | 5.29 | O=C(/C=C/c1ccc2c(c1)OCO2)c1ccc(F)cc1 | –
25 | 5.47 | COc1cc(C(=O)[C@H]2O[C@@H]2c2ccc(C)cc2)cc(OC)c1OC (racemic) | –
26 | 6.52 | COc1ccc(/C=C/C(=O)c2cc(OC)c(OC)c(OC)c2)cc1 | –
27 | 4.92 | Cc1ccc(C(=O)[C@H]2O[C@@H]2c2ccc(C)cc2)cc1 (racemic) | –
28 | 6.46 | COc1ccc(/C=C/C(=O)c2ccc(OC)c(OC)c2OC)cc1F | Activity [3]: 37%; Activity [4]: 14%; Activity [5]: 49%; pIC50 [6]: 5.10
29 | 4.70 | COc1ccc(/C=C/C(=O)c2ccc(C)cc2)cc1 | –
30 | 5.00 | COc1cc(C(=O)/C=C/c2ccc(OCc3ccccc3)cc2)cc(OC)c1OC | –
31 | 5.31 | O=C(/C=C/c1ccc(F)cc1)c1ccc(F)cc1 | –
32 | 6.52 | COc1ccc(OC)c(C(=O)/C=C/c2ccc3c(c2)OCCO3)c1 | –
33 | 5.80 | COc1cc(/C=C/C(=O)c2ccc(F)cc2)cc(OC)c1OC | –
34 | 6.52 | COc1ccc(/C=C/C(=O)c2cc(OC)c(OC)c(OC)c2)cc1F | Activity [3]: 9%; Activity [4]: 19%; Activity [5]: 72%; pIC50 [6]: 5.92
35 | 5.60 | COc1cc(/C=C(\C)C(=O)c2cc(OC)c(OC)c(OC)c2)cc(OC)c1OC | –
36 | – | COc1ccc(C(=O)/C=C/c2ccc(OC)c(OP(=O)(O)O)c2)cc1 [listing 2 of 2 here] | pIC50 ([7]; k562): 6.52
37 | 5.32 | COc1ccc(C(=O)/C=C/c2cc(F)c(OC)c(F)c2)c(OC)c1OC | Activity [3]: 51%; Activity [4]: 3%; Activity [5]: 46%; pIC50 [6]: 4.51
38 | 5.96 | COc1ccc(C(=O)/C=C/c2cc(OC)c(OC)c(OC)c2)cc1OC | –
39 | 5.14 | COc1ccc(OC)c(/C=C/C(=O)c2c(OC)cc(OC)cc2OC)c1 | –
40 | 6.30 | COc1ccc(CCCc2cc(OC)c(OC)c(OC)c2)cc1 | –
41 | 7.40 | COc1ccc(OC)c(C(=O)/C=C/c2ccc(N(C)C)cc2)c1 | –
42 | 5.40 | COc1ccc(/C=C/C(=O)c2cc(OC)c(OC)c(OC)c2)cc1[N+](=O)[O-] | –
